Here are results for six molecules from BindingDB's records for doi:10.7270/Q20V8B7J (Nmmlsc, 2009).

This assay deals with Ras-related C3 botulinum toxin substrate 1 (Mus musculus, UniProt P63001). Put plainly: activated mutant Rac1 GTP binding inhibitors, SAR follow-up, biochemical, additional analogs, multiplex bead flow cytometry (AID 2039). (In general: In flow cytometry, cells or beads pass a laser one at a time.)
Take `O=C1Nc2c(Br)cccc2C1=C1Nc2ccccc2C1=O`: the affinity, expressed as Ki, was 2510 nM.
The value for `O=C1NC(=O)/C(=C2/C(=O)Nc3ccccc32)N1` was 1060 nM; that for `O=C1Nc2ccc(Br)cc2C1=C1Nc2ccccc2C1=O` was 1110 nM.
In the case of `O=C1N=c2ccc(Br)cc2=C1c1[nH]c2ccccc2c1NO` [5-bromanyl-3-[3-(oxidanylamino)-1H-indol-2-yl]indol-2-one] it was 2980 nM.
`O=C1N=c2c(F)cccc2=C1c1[nH]c2ccccc2c1NO` [7-fluoro-3-[3-(hydroxyamino)-1H-indol-2-yl]-2-indolone] yielded a Ki of 2870 nM.
The value for `O=C1NC(=S)N/C1=C1\C(=O)Nc2ccccc21` [(3Z)-3-(5-oxo-2-sulfanylideneimidazolidin-4-ylidene)-1H-indol-2-one] was 640 nM.

The Ki is the equilibrium dissociation constant of an inhibitor or competing ligand from its target. High values mean weaker binding, low ones tighter binding.
